The test system of series [1] is tetrabenazine-induced exploratory loss and ptosis in mice. The experiment in a line: Tetrabenazine assay. Conditions: mouse, in vivo.

Molecules are shown by their SMILES. Where a name gives a salt, the structure may show the parent alone.

`CN1Cc2ccccc2C(C2=Cc3ccccc3CCC2)C1` (stereo not shown) (as salt: maleate) registered a melting point of 178 to 180 °C.
Turning to `CN1Cc2cc(-c3cccnn3)ccc2C(c2cc3ccccc3s2)C1` (stereo not shown) (as salt: maleate), the melting point fell in the range of 100 to 104 °C.
Consider `CN1Cc2c(N)cccc2C(c2ccccc2)C1` (stereo not shown) [Nomifensine], for which the “activity in the tetrabenazine assay” value in series [1] is “potent biological activity”.
The same measure, in the same setting: under `COC(=O)C(c1ccccc1)C1CCCCN1.Cl` (stereo not shown) [Ritalin®] stands “potent activity”.
